# Data reported in BindingDB's records for doi:10.1002/cbic.201100332 (University of British Columbia, 2011).
# pKi: −log10 of the molar value.
# Biological target: T1, Lysosomal acid glucosylceramidase (Homo sapiens, UniProt P04062)
# T1 sequence (P04062 whole entry): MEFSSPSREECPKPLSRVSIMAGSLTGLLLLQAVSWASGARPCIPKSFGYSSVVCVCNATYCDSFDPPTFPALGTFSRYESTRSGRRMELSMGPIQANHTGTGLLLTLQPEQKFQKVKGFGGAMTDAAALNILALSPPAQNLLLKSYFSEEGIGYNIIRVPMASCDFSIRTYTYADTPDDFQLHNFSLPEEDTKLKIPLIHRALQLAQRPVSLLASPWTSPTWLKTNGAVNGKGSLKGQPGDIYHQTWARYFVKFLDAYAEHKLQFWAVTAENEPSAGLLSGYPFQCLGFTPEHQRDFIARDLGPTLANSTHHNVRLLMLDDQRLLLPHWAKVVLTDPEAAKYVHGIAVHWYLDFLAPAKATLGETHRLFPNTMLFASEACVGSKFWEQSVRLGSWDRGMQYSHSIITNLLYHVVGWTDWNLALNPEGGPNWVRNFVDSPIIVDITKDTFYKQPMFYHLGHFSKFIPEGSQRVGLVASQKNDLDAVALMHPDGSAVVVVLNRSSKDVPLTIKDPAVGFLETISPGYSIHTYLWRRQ
# Test: Fluorescene-based Assay
# Excerpt: Fluorescene-based assay using beta-glucocerebrosidase.
pKi (pH 5.5),pKi (pH 7),SMILES
6.22,5.85,"CCCC1(CCC)NCC(O)C(O)C1CO (stereo unspecified) [Isofagomine derivative, 8]"
7.00,6.96,"OCCCC1NCC(O)C(O)C1CO (stereo unspecified) [Isofagomine derivative, 10]"
6.21,6.68,"CCCC1NCC(O)C(O)C1CO (stereo unspecified) [Isofagomine derivative, 6]"
